Among the test systems are KM20L2 colon; OVCAR-5 ovarian; OVCAR-4 ovarian; CAKI-1 renal; HCT-116 colon; SK-OV-3 ovarian; A549 NSCLC; SNB-78 CNS; UO-31 renal; NCI/ADR-RES ovarian.
Experiment in all cases: NCI-60 cell line screen, 48 h

Experimental findings from PubChem BioAssay (NCI) are described below.

Structures are written as SMILES.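 1) Cells in 96-well plates. 2) Compound, 48 h, 5 concentrations. 3) Linear interpolation between surrounding doses. 4) Unreached endpoint = highest concentration. Abbreviation: GI50, concentration required for 50% inhibition of growth. TGI: total growth inhibition.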

For the molecule `Cc1cc2c(cc1C)[n+](=O)c(C(=O)C/C(=N/NC(=O)CC#N)C(=O)Nc1ccccc1C(F)(F)F)c(C)n2[O-]`, the TGI with KM20L2 colon, in the experiment with OVCAR-5 ovarian, in the experiment on OVCAR-4 ovarian, in the experiment with CAKI-1 renal, in the experiment on HCT-116 colon and with SK-OV-3 ovarian was above 100 µM throughout. Also, the TGI with A549 NSCLC was above 100 µM.
`CCOC(=O)[C]1([Bi]([CH3])[CH3])N=NC(C(=O)OC)=C1C(=O)OC` (stereo not given): the GI50 was 27.4 µM with SNB-78 CNS; 20.3 µM in the experiment on UO-31 renal; above 10 µM with OVCAR-5 ovarian; 42.4 µM in the experiment with OVCAR-4 ovarian; 15.9 µM with CAKI-1 renal; above 100 µM in the experiment with SK-OV-3 ovarian. Further, the GI50 in the experiment on A549 NSCLC was above 10 µM. For the same molecule, the TGI in the experiment with SNB-78 CNS was above 100 µM; with UO-31 renal it was 34.5 µM; in the experiment with OVCAR-5 ovarian, above 10 µM; with OVCAR-4 ovarian, above 100 µM; in the experiment on CAKI-1 renal it was 29.3 µM; in the experiment with SK-OV-3 ovarian it was above 100 µM. Further, in the experiment with A549 NSCLC, the TGI was above 10 µM.
In the case of `COc1ccc(C2=CC3CCC2C3)cc1` (stereo not given), the TGI with SNB-78 CNS, in the experiment on UO-31 renal, with OVCAR-5 ovarian, in the experiment with OVCAR-4 ovarian, in the experiment on CAKI-1 renal and in the experiment on HCT-116 colon was above 100 µM each time. Moreover, the TGI with SK-OV-3 ovarian and with A549 NSCLC was above 100 µM in each case.
Take `N#Cc1ccc(NC(=O)Nc2ccc(Oc3ccc(NC(=O)Nc4ccc(C#N)cc4)cc3)cc2)cc1`: the GI50 is 22.2 µM in the experiment on UO-31 renal; 13 µM in the experiment with NCI/ADR-RES ovarian; 26.1 µM in the experiment on OVCAR-5 ovarian; 5.65 µM in the experiment with OVCAR-4 ovarian; 20.8 µM in the experiment with CAKI-1 renal; 4.02 µM in the experiment on HCT-116 colon. Also, the GI50 was 11.1 µM in the experiment on SK-OV-3 ovarian and 17.8 µM with A549 NSCLC. Further, the TGI with UO-31 renal, with NCI/ADR-RES ovarian, in the experiment on OVCAR-5 ovarian, in the experiment with OVCAR-4 ovarian, in the experiment with CAKI-1 renal and in the experiment on HCT-116 colon was above 100 µM in each case. For the same molecule, the TGI in the experiment with SK-OV-3 ovarian was 46.3 µM; in the experiment on A549 NSCLC it was above 100 µM.
`C=CCCCCCCCCC(=O)[O][Sn]([CH2]CCC)([CH2]CCC)[CH2]CCC`: the GI50 in the experiment with UO-31 renal was 0.132 µM; in the experiment on NCI/ADR-RES ovarian, 0.163 µM; in the experiment with OVCAR-5 ovarian, 0.128 µM; in the experiment with OVCAR-4 ovarian, 0.12 µM; in the experiment with CAKI-1 renal it was 0.112 µM; in the experiment on HCT-116 colon, 0.133 µM. Also, the GI50 in the experiment with SK-OV-3 ovarian is 0.149 µM; with A549 NSCLC it was 0.164 µM. Moreover, the TGI came to 0.276 µM in the experiment on UO-31 renal; 0.32 µM in the experiment with NCI/ADR-RES ovarian; 0.297 µM in the experiment on OVCAR-5 ovarian; 0.251 µM with OVCAR-4 ovarian; 0.3 µM with CAKI-1 renal; 0.262 µM in the experiment on HCT-116 colon. The TGI in the experiment on SK-OV-3 ovarian turned out to be 0.306 µM; with A549 NSCLC, 0.322 µM.
Regarding `O=c1c2cc([N+](=O)[O-])ccc2sc2ccsc12`, the TGI in the experiment with KM20L2 colon, in the experiment on SNB-78 CNS, with UO-31 renal, in the experiment on OVCAR-5 ovarian, with OVCAR-4 ovarian and in the experiment on HCT-116 colon was above 100 µM each time. Besides, the TGI with SK-OV-3 ovarian and with A549 NSCLC was above 100 µM each time.
Take `O=C1CCCCN1CCCCC#Cc1ccccc1C#Cc1ccc([N+](=O)[O-])cc1`: the GI50 in the experiment with UO-31 renal was 19.5 µM; in the experiment with NCI/ADR-RES ovarian it was 3.35 µM; in the experiment with OVCAR-5 ovarian, 5.25 µM; in the experiment with OVCAR-4 ovarian it was 4.38 µM; in the experiment on CAKI-1 renal, 2.93 µM; in the experiment on HCT-116 colon it was 4.18 µM. For the same molecule, the GI50 in the experiment with SK-OV-3 ovarian is 1.57 µM; in the experiment with A549 NSCLC it was 3.03 µM. Besides, the TGI was 84.6 µM in the experiment with UO-31 renal; 12.3 µM in the experiment on NCI/ADR-RES ovarian; 18.7 µM with OVCAR-5 ovarian; 22.5 µM in the experiment on OVCAR-4 ovarian; 15 µM in the experiment with CAKI-1 renal; 13.5 µM in the experiment on HCT-116 colon. For the same molecule, the TGI stood at 6.47 µM in the experiment with SK-OV-3 ovarian and 13 µM in the experiment on A549 NSCLC.
`O=C1CCC2(c3ccc(F)cc3)Nc3cc(Cl)ccc3N12` (stereo not given): the TGI in the experiment with KM20L2 colon, with SNB-78 CNS, in the experiment on UO-31 renal, in the experiment with OVCAR-4 ovarian, in the experiment with HCT-116 colon and in the experiment on SK-OV-3 ovarian was above 100 µM throughout. Besides, the TGI in the experiment with A549 NSCLC was above 100 µM.
Regarding `Oc1c(CN2CCC(N3CCCCC3)CC2)cc(Cc2cc(CN3CCC(N4CCCCC4)CC3)c(O)c3ncccc23)c2cccnc12`, the GI50 is 1 µM in the experiment on UO-31 renal; 3.12 µM in the experiment with NCI/ADR-RES ovarian; 2.74 µM in the experiment with OVCAR-5 ovarian; 0.435 µM in the experiment on OVCAR-4 ovarian; 0.941 µM with CAKI-1 renal; 0.725 µM in the experiment on HCT-116 colon. The results for the GI50 in the experiment on SK-OV-3 ovarian and with A549 NSCLC were 1.21 µM and 1.61 µM, respectively. Also, the TGI in the experiment on UO-31 renal worked out at 4.22 µM; in the experiment on NCI/ADR-RES ovarian, 17.9 µM; in the experiment on OVCAR-5 ovarian, 20.3 µM; in the experiment with OVCAR-4 ovarian, 13.6 µM; in the experiment on CAKI-1 renal, 10.2 µM; in the experiment on HCT-116 colon, 7.17 µM. For the same molecule, the values for the TGI in the experiment with SK-OV-3 ovarian and with A549 NSCLC were 5.08 µM and 5.75 µM, respectively.
In the case of `O=C1c2cc(Cl)ccc2S(=O)(=O)c2c(NCCCNCCO)nc3ccccc3c21`, the GI50 is 1.13 µM in the experiment with UO-31 renal; 3.05 µM with NCI/ADR-RES ovarian; 1.65 µM in the experiment on OVCAR-5 ovarian; 0.985 µM in the experiment on OVCAR-4 ovarian; 1.18 µM in the experiment on CAKI-1 renal; 1.49 µM in the experiment with HCT-116 colon. The GI50 with SK-OV-3 ovarian is 8.54 µM; in the experiment on A549 NSCLC, 3.22 µM. Also, the TGI in the experiment with UO-31 renal was found to be 2.36 µM; in the experiment with NCI/ADR-RES ovarian, 10.8 µM; with OVCAR-5 ovarian, 3.32 µM; in the experiment on OVCAR-4 ovarian, 2.18 µM; with CAKI-1 renal, 2.4 µM; in the experiment on HCT-116 colon, 3.26 µM. The results for the TGI in the experiment with SK-OV-3 ovarian and with A549 NSCLC were 20.9 µM and 12.3 µM, respectively.
For `Oc1ccc(CN2CCC(N3CCCCC3)CC2)c2cccnc12`, the GI50 in the experiment with UO-31 renal is 6.2 µM; in the experiment on NCI/ADR-RES ovarian it was 24.2 µM; in the experiment on OVCAR-5 ovarian, 45.4 µM; in the experiment on OVCAR-4 ovarian, 24.2 µM; in the experiment on CAKI-1 renal it was 33.8 µM; with HCT-116 colon, 4.49 µM. For the same molecule, the GI50 in the experiment with SK-OV-3 ovarian was 24.8 µM; with A549 NSCLC it was 6.68 µM. The TGI with UO-31 renal is 34.6 µM; with NCI/ADR-RES ovarian, above 100 µM; in the experiment with OVCAR-5 ovarian, above 100 µM; in the experiment with OVCAR-4 ovarian it was above 100 µM; with CAKI-1 renal, above 100 µM; in the experiment on HCT-116 colon it was above 100 µM. Also, the TGI with SK-OV-3 ovarian and with A549 NSCLC was above 100 µM throughout.
